The values below come from publication PMC11054271, “ABCG2 Transports the Flukicide Nitroxynil and Affects Its Biodistribution and Secretion into Milk” (Pharmaceutics, 2024).

Common to all, as to type: in vivo
The subject of data set [1] is murine Abcg2. As to the kind of experiment: Tissue distribution in wild-type and Abcg2−/− male mice. To be noted: 10 mg/kg s.c. The protocol:
(§1) All in vivo experiments were carried out using wild-type and Abcg2^−/− mice aged between 8 and 17 weeks, all of >99% FVB/N genetic background, generated and gently supplied by A. H. Schinkel (Netherlands Cancer Institute). Mice were housed and handled complying with institutional and ARRIVE guidelines and European legislation (EU Directive 2010/63/EU for animal experiments). Additionally, experimental procedures were approved by the Animal Care and Use Committee of the University of León and the Junta de Castilla y León (ULE_011_2019).
For pharmacokinetic experiments, a single dose of nitroxynil at 10 mg/kg was administered subcutaneously to wild-type and Abcg2^−/− male mice (n = 4–5, for each time point). Distomicide® (250 mg/mL) commercial solution was dissolved in saline (sodium chloride 0.9%) and dosed at 200 μL per 30 g body weight. Blood samples were collected at different time points (0.5, 3, 4.5, 6, 24, 48 and 96 h) and heparinized blood samples were centrifugated for 15 min at 3000× g. Organs were also collected at 24 and 96 h after euthanasia. Linear trapezoidal rule was used to calculate the area under the plasma concentration–time curve (AUC) parameter.
(§2) Plasma, milk and tissue samples from each animal were individually processed and analyzed without pooling, while samples from transport assays were not processed. Tissue samples were homogenized in a mixture of 50% water/50% methanol HCl 0.5% (v/v); 1 mL solution per 0.1 g tissue. The entire amount of collected milk (74.7–295.1 mg) and 100 μL plasma and tissue homogenates were processed. To each sample, 10 μL of a nitrofurantoin solution (10 μg/mL for plasma and milk and 2 μg/mL for homogenized tissues) was added as an internal standard and 150 μL acetonitrile was used to precipitate the proteins. The mixture was vortexed horizontally for 15 min and centrifugated at 10,000× g for 5 min at 4 °C. Supernatant was transferred to a new tube and dried at 40 °C under N2 stream. Samples were reconstituted in 100 μL of mobile phase and 50 μL was injected into HPLC. Standards were subjected to the same procedures as samples.
(§3) Waters 2695 separation module and Waters 2998 UV photodiode array detector set at 270 nm were used for samples analysis. Chromatographic conditions for nitroxynil detection were based on previously described methods, with minor modifications. Chromatographic separation was achieved on a reverse-phase column (Synergy 4 μm Hydro–RP 80 Å, 250 × 4.60 mm; Phenomenex®, Torrance, CA, USA) using an isocratic binary mobile phase consisting of 25 mM potassium phosphate monobasic (KH2PO4), pH 4: acetonitrile (70:30 for culture samples and 80:20 for animal samples) at a flow rate of 1 mL/min. Autosampler and column temperature were 4 °C and 40 °C, respectively. Limit of detection (LOD) and quantification (LOQ) were calculated as previously described. For cell culture samples, LOD and LOQ were 0.003 μg/mL and 0.007 μg/mL, respectively. For in vivo samples, LOD was in the range of 0.01–0.07 μg/mL and LOQ in the range of 0.03–0.15 μg/mL.

For data set [2], the system named is murine Abcg2. As to the kind of experiment: Milk secretion experiment in lactating wild-type and Abcg2−/− female mice. The following applies: FVB/N, mouse, intravenous, lactating Abcg2−/− female mice, 30 min after 10 mg/kg i.v. The protocol: as §1
(§4) Pups of approximately 10 days old were separated from their mothers (wild-type (n = 10) and Abcg2^−/− (n = 11) female mice) 3 h before beginning the experiment. Milk secretion experiments were performed as previously described. Nitroxynil solution was prepared by diluting Distomicide® (250 mg/mL) commercial solution in saline and administered at a dose of 150 μL/30 g bw into the tail vein under anesthesia with isoflurane. An amount of 200 μL oxytocin (1 IU/mL) was administrated subcutaneously 10 min before milk collection. Blood and milk samples were collected from retro-orbital sinus and mammary gland, respectively, 30 min after nitroxynil administration.
as §2, §3

The test system of data set [3] is T1, murine Abcg2.
T1 construct: from tissue; host or cells: whole animal: wild-type vs Abcg2-/- mice, >99% FVB/N background
The description is as above. The following applies: FVB/N, mouse, intravenous, lactating wild-type female mice, 30 min after 10 mg/kg i.v. The protocol: as §1, §4, §2, §3

Where [4] appears, read: milk and plasma, read-out: Milk-to-plasma ratio.
Where [5] appears, read: milk, read-out: Milk concentration.
[6] abbreviates: plasma, read-out: Plasma concentration.

Read-outs that look alike come from different tables or passages of the source.

As to `N#Cc1cc(I)c(O)c([N+](=O)[O-])c1` [nitroxynil], the “Tissue concentration, spleen” value in data set [1] (Abcg2−/− male mice, 96 h) is on record as “<LOQ”. Also, the Kp at 96 h in data set [1] (FVB/N, mouse, kidney and plasma, sc, Abcg2−/− male mice, 96 h, read-out: Tissue/plasma ratio, kidney) amounted to 0.03 ± 0.01. Moreover, the concentration at 24 h in data set [1] (FVB/N, mouse, kidney, sc, Abcg2−/− male mice, read-out: Tissue concentration, kidney) stood at 8200 ± 1800 ng/g; in data set [1] (FVB/N, mouse, liver, sc, Abcg2−/− male mice, read-out: Tissue concentration, liver) it was 1300 ± 300 ng/g; in data set [1] (FVB/N, mouse, small intestine, sc, Abcg2−/− male mice, read-out: Levels of nitroxynil in small intestine), 1600 ± 300 ng/mL; in data set [1] (FVB/N, mouse, small intestine, sc, Abcg2−/− male mice, read-out: Tissue concentration, small intestine), 1600 ± 300 ng/g; in data set [1] (FVB/N, mouse, spleen, sc, Abcg2−/− male mice, read-out: Accumulation in spleen) it was 2500 ± 300 ng/mL; in data set [1] (FVB/N, mouse, spleen, sc, Abcg2−/− male mice, read-out: Tissue concentration, spleen) it was 2500 ± 300 ng/g. For the same compound, the concentration at 24 h in data set [1] (FVB/N, mouse, testis, sc, Abcg2−/− male mice, read-out: Concentration in testis) was 4200 ± 800 ng/mL; in data set [1] (FVB/N, mouse, testis, sc, Abcg2−/− male mice, read-out: Tissue concentration, testis) it was 4200 ± 800 ng/g. The concentration at 96 h in data set [1] (FVB/N, mouse, kidney, sc, Abcg2−/− male mice, 96 h, read-out: Tissue concentration, kidney) is 3500 ± 300 ng/g; in data set [1] (FVB/N, mouse, liver, sc, Abcg2−/− male mice, 96 h, read-out: Tissue concentration, liver), 700 ± 200 ng/g; in data set [1] (FVB/N, mouse, small intestine, sc, Abcg2−/− male mice, 96 h, read-out: Tissue concentration, small intestine), 500 ± 100 ng/g; in data set [1] (FVB/N, mouse, testis, sc, Abcg2−/− male mice, 96 h, read-out: Tissue concentration, testis) it was 1100 ± 200 ng/g. Moreover, the Brain levels entry in data set [1] (wild-type and Abcg2−/− male mice, 24 and 96 h, almost all samples) was “below LOQ”. In addition, the Kp at 30 min in data set [2] (setting [4]) turned out to be 0.1 ± 0.03; in data set [3] (setting [4]), 0.3 ± 0.1. The concentration at 30 min is 8100 ± 1000 ng/mL in data set [2] (setting [5]), 62800 ± 13900 ng/mL in data set [2] (setting [6]), 15700 ± 6300 ng/mL in data set [3] (setting [5]) and 58800 ± 11200 ng/mL in data set [3] (setting [6]).
